These results are taken from patent US11476000B2, “Methods and systems using mathematical analysis and machine learning to diagnose disease” (Analytics For Life Inc., priority 2015, dated 2022).

For data set [1] the following is noted: estimated; cited from earlier work.
In data set [2] the test system is outbred pregnant Sprague-Dawley rats. Put plainly: Teratogenicity of maternal DMO administration in pregnant rats (CHD in progeny). The following applies: rat pups after DMO exposure, natural delivery, echocardiography. Type of data set: in vivo. The method, then:
(§1) To explore the potential deleterious long-term consequences of resolved CHDs, the exemplified rat model was developed that recapitulates many of the clinical presentations of CHD. To generate such a model, pregnant rats were treated with a chemical teratogen. […] Without wishing to be bound to particular theory, it is thought that DMO teratogenicity is mediated by oxidative stress which might be the result of the result of hypoxia reperfusion injury caused by bradycardias induced by disruption of calcium and potassium ion channels in embryonic myocytes. […] The administration of four 300 mg/kg doses every twelve hours beginning on the morning of gestation day (GD) 9 produces approximately a 50% incidence of CHD if fetuses are examined on GD 21, one day prior to natural parturition (see, e.g., Weston et al., “Co-variation in frequency and severity of cardiovascular and skeletal defects in Sprague-Dawley rats after maternal administration of dimethadione, the N-demethylated metabolite of trimethadione. Birth defects research Part B,” Developmental and reproductive toxicology, Vol. 92, Pages 206-15 (2011)). […] For example, in infants, approximately 80% of VSD resolves by one year of age, and in test rats after DMO exposure, about 80% of the VSD resolve spontaneously by weaning. […]

Data set [3] shares this test system. The following applies: four 300 mg/kg doses every twelve hours beginning morning of GD 9; fetuses examined on GD 21; cited from earlier work.
In data set [4] the test system is test rats exposed to DMO in-utero. Description: Cardiovascular adaptation to pregnancy in rats exposed to DMO in utero. Type of data set: in vivo, rat. The following applies: in-utero exposed rats with resolved CHD; altered CO, SV, strain, elevated mean arterial pressure. The protocol:
as §1

`CN1C(=O)OC(C)(C)C1=O` [trimethadione]: the “in utero exposures resulting in embryo/fetal loss, or malformations including a high incidence of CHD” value in data set [1] is 80%.

Take `CC1(C)OC(=O)NC1=O` [DMO, dimethadione]: the “VSD that resolve spontaneously by weaning” value in data set [2] is “approximately 80%”. Also, the “incidence of CHD” value in data set [3] was around 50%. Also, in data set [4], the “adaptation of the cardiovascular system to pregnancy” value is recorded as “adapted poorly to the burden of pregnancy”.
